Laboratory results: article PMC10145285, “Diverse Biological Activity of Benzofuroxan/Sterically Hindered Phenols Hybrids” (Pharmaceuticals, 2023)
Values after ≈ are worked out from the molar mass of the structure shown. Where two headings read alike, the source gives them in different places.

Key:
MCF-7 = assay: cells; assay type: cell-based, human; conditions: Homo sapiens, read-out: IC50, MCF-7
Chang Liver = assay: cells; conditions: Homo sapiens, 48 h, read-out: IC50, Chang Liver
HuTu 80 = assay: cells; conditions: Homo sapiens, HuTu80, 48 h, read-out: IC50, HuTu 80
[1] = test system: Staphylococcus aureus ATCC 6538P FDA 209P (Sa); assay: Antimicrobial serial microdilution, Sa; assay type: cell-based; conditions: for MIC: read-out: Minimum Inhibitory Concentration (MIC), Sa
M-HeLa = assay: cells; conditions: Homo sapiens, 48 h, read-out: IC50, M-HeLa
[2] = test system: Enterococcus faecalis ATCC 29212 (Ef); assay: Antimicrobial serial microdilution, Ef; assay type: cell-based; conditions: for MIC: Enterococcus faecalis
MRSA-2 = assay: Antimicrobial serial microdilution, MRSA-2; assay type: cell-based, Staphylococcus aureus
[3] = test system: Bacillus cereus ATCC 10702 (Bc); assay: Antimicrobial serial microdilution, Bc; assay type: cell-based; conditions: for MIC: Bacillus cereus
MRSA-1 = assay: Antimicrobial serial microdilution, MRSA-1; assay type: cell-based, Staphylococcus aureus
PANC-1 = assay: cells; conditions: Homo sapiens, PANC-1, 48 h, read-out: IC50, PANC-1
A375 = assay: cells; assay type: cell-based; conditions: Homo sapiens, read-out: IC50, A375
PC3 = assay: cells; assay type: cell-based; conditions: Homo sapiens, read-out: IC50, PC3
WI38 = assay: cells; assay type: cell-based; conditions: Homo sapiens, read-out: IC50, WI38
T98G = assay: cells; assay type: cell-based; conditions: Homo sapiens, 48 h, read-out: IC50, T98G
A549 = assay: cells; conditions: Homo sapiens, A549, 48 h, read-out: IC50, A549
[4] = serial microdilution, strain resistant only to β-lactams
[5] = serial microdilution, strain resistant to β-lactams and fluoroquinolones
[6] = A-375, cancer cell line, 48 h incubation, MTT
[7] = WI-38, normal cell line, 48 h incubation, MTT
[8] = serial microdilution, Mueller-Hinton broth

| SMILES | IC50 (MCF-7; MCF7, 48 h) | IC50 (Chang Liver) | IC50 (HuTu 80) | Minimum Inhibitory Concentration (MIC), Sa [1] | IC50 (M-HeLa) | Minimum Inhibitory Concentration (MIC), Ef [2] | Minimum Inhibitory Concentration (MIC), Bc [3] | IC50 (PANC-1) | IC50 (A375; A-375, 48 h) | IC50 (PC3; PC-3, 48 h) | IC50 (WI38; WI-38, 48 h) | IC50 (T98G) | IC50 (A549) | also measured |
| --- | --- | --- | --- | --- | --- | --- | --- | --- | --- | --- | --- | --- | --- | --- |
| COP(=O)(OC)C(c1cc(C(C)(C)C)c(O)c(C(C)(C)C)c1)c1ccc(N)nc1N (centres unmarked) [2a] | 31 ± 2.6 µM | > 100 µM | > 100 µM | - | 16.1 ± 1.3 µM | - | - |  |  |  |  |  |  | Minimum Inhibitory Concentration (MIC), MRSA-2 (MRSA-2; [4]): -; Minimum Inhibitory Concentration (MIC), MRSA-1 (MRSA-1; [5]): - |
| CCOP(=O)(OCC)C(c1cc(C(C)(C)C)c(O)c(C(C)(C)C)c1)c1ccc(N)nc1N (centres unmarked) [2b] | 34.2 ± 3 µM | > 100 µM | 86.6 ± 6.8 µM |  | 17.1 ± 1.3 µM |  |  |  |  |  |  |  |  |  |
| CC(C)OP(=O)(OC(C)C)C(c1cc(C(C)(C)C)c(O)c(C(C)(C)C)c1)c1ccc(N)nc1N (centres unmarked) [2c] | 21.8 ± 1.7 µM | > 100 µM | > 100 µM | - | 38 ± 2.8 µM | - | - |  |  |  |  |  |  | Minimum Inhibitory Concentration (MIC), MRSA-2 (MRSA-2; [4]): -; Minimum Inhibitory Concentration (MIC), MRSA-1 (MRSA-1; [5]): - |
| CC(C)(C)c1cc(C(c2ccc(N)nc2N)P(=O)(Oc2ccccc2)Oc2ccccc2)cc(C(C)(C)C)c1O (centres unmarked) [2d] | 16 ± 1.2 µM | 52 ± 3.5 µM | 63.2 ± 5.6 µM | - | 7.4 ± 0.7 µM | - | - |  |  |  |  |  |  | Minimum Inhibitory Concentration (MIC), MRSA-2 (MRSA-2): -; Minimum Inhibitory Concentration (MIC), MRSA-1 (MRSA-1): - |
| COP(=O)(OC)C(c1cc(C(C)(C)C)c(O)c(C(C)(C)C)c1)c1ccc(N)cc1N (centres unmarked) [2e] | > 100 µM | > 100 µM |  |  | 45.3 ± 3.2 µM |  |  |  |  |  |  |  |  |  |
| COP(=O)(OC)C(c1cc(C(C)(C)C)c(O)c(C(C)(C)C)c1)c1ccc(Nc2c([N+](=O)[O-])cc([N+](=O)[O-])c3no[n+]([O-])c23)nc1N (centres unmarked) [4a, 7-((6-amino-5-((3,5-di-tert-butyl-4-hydroxyphenyl)(dimethoxyphosphoryl)methyl)pyridin-2-yl)amino)-4,6-dinitrobenzo[c][1,2,5]oxadiazole 1-oxide] | 7.6 ± 0.6 µM | 12 ± 1.2 µM | 5.2 ± 0.4 µM | - | 4.2 ± 0.3 µM | - | - | 20 ± 1.7 µM | 13.5 ± 1.2 µM | 14 ± 1.2 µM | 7.2 ± 0.6 µM | 12.4 ± 1.2 µM | 13.5 ± 1.2 µM | Minimum Inhibitory Concentration (MIC), MRSA-2 (MRSA-2): -; Minimum Inhibitory Concentration (MIC), MRSA-1 (MRSA-1): - |
| CCOP(=O)(OCC)C(c1cc(C(C)(C)C)c(O)c(C(C)(C)C)c1)c1ccc(Nc2c([N+](=O)[O-])cc([N+](=O)[O-])c3no[n+]([O-])c23)nc1N (centres unmarked) [4b, 7-((6-amino-5-((3,5-di-tert-butyl-4-hydroxyphenyl)(diethoxyphosphoryl)methyl)pyridin-2-yl)amino)-4,6-dinitrobenzo[c][1,2,5]oxadiazole 1-oxide] | 3.1 ± 0.2 µM | 7 ± 1.5 µM | 5.4 ± 0.3 µM |  | 2.9 ± 0.2 µM |  |  | 5.3 ± 0.4 µM | 11.4 ± 0.9 µM | 11 ± 0.8 µM | 5.3 ± 0.4 µM | 8.3 ± 0.7 µM | 9.3 ± 0.8 µM |  |
| CC(C)(C)c1cc(C(c2ccc(Nc3c([N+](=O)[O-])cc([N+](=O)[O-])c4no[n+]([O-])c34)nc2N)P(=O)(Oc2ccccc2)Oc2ccccc2)cc(C(C)(C)C)c1O (centres unmarked) [4d, 7-((6-amino-5-((3,5-di-tert-butyl-4-hydroxyphenyl)(diphenoxyphosphoryl)methyl)pyridin-2-yl)amino)-4,6-dinitrobenzo[c][1,2,5]oxadiazole 1-oxide] | 9 ± 0.7 µM | 21 ± 2.4 µM | 13.1 ± 1.1 µM | - | 6.3 ± 0.5 µM | - | - | 11.9 ± 0.9 µM | 17 ± 1.4 µM | 11.3 ± 0.9 µM | 11.3 ± 1.1 µM | 7.9 ± 0.7 µM | 9 ± 0.7 µM | Minimum Inhibitory Concentration (MIC), MRSA-2 (MRSA-2): -; Minimum Inhibitory Concentration (MIC), MRSA-1 (MRSA-1): - |
| COP(=O)(OC)C(c1cc(C(C)(C)C)c(O)c(C(C)(C)C)c1)c1ccc(Nc2c([N+](=O)[O-])cc([N+](=O)[O-])c3no[n+]([O-])c23)cc1N (centres unmarked) [4e, 7-((3-amino-4-((3,5-di-tert-butyl-4-hydroxyphenyl)(dimethoxyphosphoryl)methyl)phenyl)amino)-4,6-dinitrobenzo[c][1,2,5]oxadiazole 1-oxide] | 21.5 ± 1.8 µM | 14.3 ± 1.3 µM | 17.1 ± 1.3 µM |  | 12 ± 1 µM |  |  | 17.4 ± 1.3 µM | 53.1 ± 4.1 µM | 12.3 ± 1.1 µM | 25.7 ± 2.2 µM | 40.2 ± 3.1 µM | 48.3 ± 3.7 µM |  |
| COP(=O)(OC)C(c1cc(C(C)(C)C)c(O)c(C(C)(C)C)c1)c1ccc(Nc2c([N+](=O)[O-])cc([N+](=O)[O-])c3no[n+]([O-])c23)nc1Nc1c([N+](=O)[O-])cc([N+](=O)[O-])c2no[n+]([O-])c12 (centres unmarked) [5a, 7,7’-((3-((3,5-di-tert-butyl-4-hydroxyphenyl)(dimethoxyphosphoryl)methyl)pyridine-2,6-diyl)bis(azanediyl))bis(4,6-dinitrobenzo[c][1,2,5]oxadiazole 1-oxide)] | 12.1 ± 1.1 µM | 15.1 ± 1.7 µM | 11 ± 0.9 µM |  | 7.7 ± 0.6 µM |  |  | 13.5 ± 1.1 µM | 21.6 ± 1.8 µM | 7.7 ± 0.6 µM | 11.4 ± 0.9 µM | 26.8 ± 2.2 µM | 48.4 ± 3.5 µM | MIC ([1]; Staphylococcus aureus): 125 ± 11 µg/mL (≈ 141 µM); MBC ([1]; Staphylococcus aureus, read-out: Minimum bactericidal and fungicidal concentrations (MBC), (MFC), Sa): 250 ± 19 µg/mL (≈ 283 µM); Minimum bactericidal and fungicidal concentrations (MBC), (MFC), Ef [2]: -; MIC ([2]; ATCC29212, read-out: Minimum Inhibitory Concentration (MIC), Ef): 125 ± 10 µg/mL (≈ 141 µM); Minimum bactericidal and fungicidal concentrations (MBC), (MFC), MRSA-2 (MRSA-2): -; MIC (MRSA-2; Staphylococcus aureus, MRSA, read-out: Minimum Inhibitory Concentration (MIC), MRSA-2): 250 ± 20 µg/mL (≈ 283 µM); Minimum bactericidal and fungicidal concentrations (MBC), (MFC), Bc [3]: -; MIC ([3]; ATCC10702, read-out: Minimum Inhibitory Concentration (MIC), Bc): 62.5 ± 5.3 µg/mL (≈ 70.7 µM); MIC (MRSA-1; Staphylococcus aureus, MRSA, read-out: Minimum Inhibitory Concentration (MIC), MRSA-1): 250 ± 20 µg/mL (≈ 283 µM); MBC (MRSA-1; Staphylococcus aureus, MRSA, read-out: Minimum bactericidal and fungicidal concentrations (MBC), (MFC), MRSA-1): 250 ± 21 µg/mL (≈ 283 µM) |
| O=C(N[C@H](CO)[C@H](O)c1ccc([N+](=O)[O-])cc1)C(Cl)Cl [Chloramphenicol, reference compound] |  |  |  |  |  |  |  |  |  |  |  |  |  | MIC ([1]; Staphylococcus aureus, serial microdilution, Mueller-Hinton broth): 31.3 ± 2.2 µg/mL (≈ 96.9 µM); Minimum bactericidal and fungicidal concentrations (MBC), (MFC), Sa ([1]; serial microdilution): -; MIC ([2]; ATCC29212, serial microdilution, Mueller-Hinton broth, read-out: Minimum Inhibitory Concentration (MIC), Ef): 62.5 ± 5.2 µg/mL (≈ 193 µM); Minimum bactericidal and fungicidal concentrations (MBC), (MFC), Ef ([2]; serial microdilution): -; Minimum bactericidal and fungicidal concentrations (MBC), (MFC), MRSA-2 (MRSA-2; serial microdilution): -; MIC ([3]; ATCC10702, serial microdilution, Mueller-Hinton broth, read-out: Minimum Inhibitory Concentration (MIC), Bc): 62.5 ± 5.4 µg/mL (≈ 193 µM); Minimum bactericidal and fungicidal concentrations (MBC), (MFC), Bc ([3]; serial microdilution): -; Minimum bactericidal and fungicidal concentrations (MBC), (MFC), MRSA-1 (MRSA-1; serial microdilution): - |
| COc1cccc2c1C(=O)c1c(O)c3c(c(O)c1C2=O)C[C@@](O)(C(=O)CO)C[C@@H]3O[C@H]1C[C@H](N)[C@H](O)[C@H](C)O1 [DOX, doxorubicin, reference compound] |  | 0.5 ± 0.04 µM | 0.2 ± 0.01 µM |  | 2.1 ± 0.2 µM |  |  | 2.2 ± 0.1 µM |  |  |  | 2 ± 0.1 µM | 0.7 ± 0.05 µM | IC50 (MCF-7; MCF7, cancer cell line, 48 h incubation, MTT): 0.4 ± 0.03 µM; IC50 (A375; [6]): 0.3 ± 0.02 µM; IC50 (WI38; [7]): 0.4 ± 0.02 µM |
| CC(=O)N1CCN(c2ccc(OCC3COC(Cn4ccnc4)(c4ccc(Cl)cc4Cl)O3)cc2)CC1 (centres unmarked) [Ketoconazole, reference compound] |  |  |  |  |  |  |  |  |  |  |  |  |  | Minimum bactericidal and fungicidal concentrations (MBC), (MFC), Sa ([1]; serial microdilution): -; Minimum Inhibitory Concentration (MIC), Sa [1, 8]: -; Minimum bactericidal and fungicidal concentrations (MBC), (MFC), Ef ([2]; serial microdilution): -; Minimum Inhibitory Concentration (MIC), Ef [2, 8]: -; Minimum bactericidal and fungicidal concentrations (MBC), (MFC), MRSA-2 (MRSA-2; serial microdilution): -; Minimum Inhibitory Concentration (MIC), MRSA-2 (MRSA-2; [4]): -; Minimum bactericidal and fungicidal concentrations (MBC), (MFC), Bc ([3]; serial microdilution): -; Minimum Inhibitory Concentration (MIC), Bc [3, 8]: -; Minimum bactericidal and fungicidal concentrations (MBC), (MFC), MRSA-1 (MRSA-1; serial microdilution): -; Minimum Inhibitory Concentration (MIC), MRSA-1 (MRSA-1; [5]): - |
| CNC(=O)c1cc(Oc2ccc(NC(=O)Nc3ccc(Cl)c(C(F)(F)F)c3)cc2)ccn1 [SF, sorafenib, reference compound] |  |  |  |  |  |  |  | 12 ± 1.1 µM |  |  |  | 8.6 ± 0.7 µM | 25.2 ± 2.2 µM | IC50 (A375; [6]): 6.8 ± 0.5 µM; IC50 (PC3; PC-3, cancer cell line, 48 h incubation, MTT): 11.3 ± 0.9 µM; IC50 (WI38; [7]): 6.6 ± 0.5 µM |
